Columns and labels:
[1] = tested on: Sprague–Dawley (SD) rats; test: Starch loading test, postprandial blood glucose in SD rats; type: in vivo, rat; settings: extracts 0.5 g/kg
Excerpt: (§1) All animal procedures were approved by the Institutional Animal Care and Use Com-[…]) of […] University (Approval number: HNU2016-0015-1). This study is reported in accordance with ARRIVE guidelines (https://arriveguidelines.org). Four-week-old male Sprague-Dawley (SD) rats were purchased from Joongang Experimental Animal Co. (Seoul, Korea) and fed with a standard diet (Samyang Diet Co., Seoul, Korea) and with water ad libitum for one week. Effect on hyperglycemia-induced by carbohydrate loads in Sprague-Dawley (SD) rats was determined by the inhibitory action of coffee extracts on postprandial hyperglycemia as described in [30]. […] In the case of the administration group, administration samples were prepared by mixing starch or sugar with coffee extracts by dose in advance were orally administrated using a zonde injection needle. […] The glucose level in blood was determined by the glucose oxidase method and compared with that of the control group. The parameters for blood glucose levels will be calculated Maximum observed peak blood glucose level (Cmax) and the time at which it is observed (Tmax) were determined based on the observed data. […] In addition, statistical significances in the animal study were determined by Student's t-test (*p < 0.05; **p < 0.01; and *** p < 0.001). […]

[2] = tested on: Sprague–Dawley (SD) rats; test: Sucrose loading test, postprandial blood glucose in SD rats; type: in vivo, rat; settings: sucrose 2.0 g/kg oral, extracts 0.5 g/kg, Acarbose 5.0 mg/kg, mean ± S.D., n = 5
Excerpt: as §1

[3] = target: rat intestinal α-glucosidase; test: Rat small intestinal α-glucosidase inhibition assay (pNPG substrate); type: biochemical
Description: In order to investigate the inhibitory effect of coffee extracts on the absorption of glucose, rat intestinal α-glucosidase inhibitory activity was determined using the substrate p-nitrophenyl-α-D-glucopyranoside (pNPG) according to [28] with a slight modification. A total of 0.6 g of rat-intestinal acetone powder was suspended in 9 mL of 0.1 M sodium phosphate buffer 0.9%, and the suspension was sonicated for 12 times 30 s at 4 °C. It was then centrifuged (13,000 × g, 30 min, 4 °C), and the resulting supernatant was used for the assay. […] Absorbance was measured at 405 nm and compared to a control that had 50 μL of buffer solution in place of the extract by Micro-Plate Reader (SpectraMAx® i3, Molecular devices LLC., Wals, Austria). The rat α-glucosidase inhibitory activity was expressed as percent inhibition and was calculated as follows: Inhibition%=ΔAControl405-ΔAExtract405/ΔAControl405×100
All data are presented as mean ± S.D. Statistical analyses were carried out using the statistical packages SPSS 11 (Statistical Package for Social Science 11, SPSS Inc., Chicago, IL, USA) program and the significance of each group was verified with the analyses of one-way ANOVA followed by Duncan’s test of p < 0.05. In addition, statistical significances in the animal study were determined by Student’s t-test (*p < 0.05; **p < 0.01; and *** p < 0.001). […]

SMILES: C[C@H]1O[C@H](O[C@H]2[C@H](O)[C@@H](O)[C@@H](O[C@H]3[C@H](O)[C@@H](O)C(O)O[C@@H]3CO)O[C@@H]2CO)[C@H](O)[C@@H](O)[C@@H]1N[C@H]1C=C(CO)[C@@H](O)[C@H](O)[C@H]1O (some centres unmarked) [Acarbose, acarbose]
- AUCt (blood glucose-time curve) ([1]; starch 2.0 g/kg oral, Acarbose 5.0 mg/kg, mean ± S.D., n = 5): 389.0 ± 36.8^*** hr·mg/dL
- blood glucose level after starch loading compared to control ([1]; starch 2.0 g/kg, Acarbose 5 mg/kg oral): significantly higher blood lowering than all the coffee types and the controls
- AUCt (blood glucose-time curve) [2]: 376.2 ± 17.2^*** hr·mg/dL
- IC50 rat intestinal α-glucosidase ([3]; Ethanol extract row): < 500 µg/mL
- IC50 rat intestinal α-glucosidase ([3]; Water extract row): < 500 µg/mL

Source: publication PMC9508756, “Selected coffee (Coffea arabica L.) extracts inhibit intestinal α-glucosidases activities in-vitro and postprandial hyperglycemia in SD Rats” (BMC Complementary Medicine and Therapies, 2022)
